Holding throughout (format): physicochemical
Data set [1] in a line: Uniformity coefficient from particle size distribution measurement. The note with it: ratio of 60% passing to 10% passing particle diameter; closer to 1 = higher fluidity. The text has this:
The uniformity coefficient is an index representing fluidity of the powder, and refers to a ratio obtained by dividing a particle diameter through which the powder in an amount of 60% passes by a particle diameter through which the powder in an amount of 10% passes on a cumulative particle diameter distribution curve measured by particle size distribution measurement or sieve division. The closer the value of the uniformity coefficient is to 1, the higher the fluidity is.
The uniformity coefficient can be measured in accordance with the accompanying manual using, for example, a particle size distribution measuring device LS 13 32 (manufactured by Beckman Coulter, Inc.).

Data set [2] can be described thus: Methanol content in crystal, except methanol adhering to the crystal surface, by thermal analysis. The note with it: excluding surface-adhering methanol. The text has this:
The fact that the methanol solvate crystal of eucomic acid is a mono-methanol solvate crystal can be confirmed by the fact that a methanol content in the crystal except for methanol adhering to a crystal surface thereof is generally 7.0 to 14.0 wt %, preferably 9.0 to 11.0 wt %.
The methanol content in the crystal except for the methanol adhering to the crystal surface can be measured by, for example, thermal analysis described in the following measurement example.
Measurement Example of Methanol Content in Crystal by Thermal Analysis
Used equipment: EXSTAR 6000 TG/DTA 6200 (manufactured by Seiko Instruments Inc.)
Measurement conditions: Temperature rises from 20° C. to 30° C. at 20° C./min→Hold for 15 minutes at 30° C.→Temperature rises from 30° C. to 250° C. at 5° C./min
Nitrogen flow rate: 300 mL/min

A short description of data set [3]: Methanol content (residual methanol) measured using a gas chromatograph. The conditions noted are these: value includes methanol adhering to the crystal surface. On the procedure:
Analysis Example Using Gas Chromatograph
Used equipment: GC-2014 (manufactured by Shimadzu Corporation)
Column: AGILENT J&W DB-WAX 30 m×0.535 mm×1.00 μm (Agilent Technologies, Inc.)
Column temperature: 200° C.
By analysis using HPLC, it was confirmed that the crystal was a crystal of eucomic acid. […] The methanol content is a value including methanol adhering to the crystal surface. The methanol content in the crystal except for the methanol adhering to the crystal surface was 9.0 wt %. It was considered from this that the crystal was a mono-methanol solvate crystal of eucomic acid.
Subsequently, the obtained methanol solvate crystal of eucomic acid was heated and dried at 100° C. for 9 hours at normal pressure. By analysis using HPLC, it was confirmed that the crystal after heating and drying was a crystal of eucomic acid. […] As a result of measuring residual methanol using a gas chromatograph, a methanol content of the crystal was 0.14 wt %. It was found from the above that the crystal was a non-solvate crystal of eucomic acid.

Data set [4] can be described thus: Angle of repose measurement (Multi Tester MT-1001T). The note with it: sieve 1.18 mm, vibration width 0.5 to 0.6 mm; mean of three sites. The text has this:
The angle of repose refers to an angle formed by a generating line of a cone formed with a powder when the powder is allowed to gently fall onto the horizontal plane through a kind of funnel and a horizontal plane.
The angle of repose can be measured using Multi Tester MT-1001T (manufactured by Seishin Enterprise Co, Ltd.) in accordance with the accompanying manual according to the following measurement example.
Measurement Example of Angle of Repose
Used equipment: multi-tester MT-1001T type (manufactured by Seishin Enterprise Co., Ud.)
Vibration width: 0.5 to 0.6 mm
Measurement method: Crystals are allowed to fall by passing through a sieve of 1.18 mm that is vibrated with a width of 0.5 to 0.6 mm, and are deposited on an angle-of-repose table (part number: MT-1029). The angle-of-repose table is rotated without being given vibration, angles are read at three sites, and an arithmetic mean value of the angles is determined to be the angle of repose.

Data set [5] can be described thus: Water content by Karl Fischer method. The conditions noted are these: crystal after heating and drying at 100° C. for 9 hours. Here is the method: Measurement Example by Karl Fischer Method
Used equipment: AQV-2200 (HIRANUMA SANGYO Co., Ltd.)
Measurement method: The water content in the crystal is measured in accordance with instructions for use of AQV-2200 (HIRANUMA SANGYO Co., Ltd.)

As to `O=C(O)C[C@](O)(Cc1ccc(O)cc1)C(=O)O` [Methanol solvate crystal, (R)-2-hydroxy-2-[(4-hydroxyphenyl)methyl]butanedioic acid], the Uniformity coefficient in data set [1] came to 4.25. Also, in data set [2], the “Methanol content in the crystal except for the methanol adhering to the crystal surface” value was 9.0 wt %. Besides, the Methanol content in data set [3] and in data set [3] (listed as methanol solvate crystal of eucomic acid) was 28.1 wt % in each case. Besides, in data set [4], the Angle of repose turned out to be 45.7 degree.
In the case of `O=C(O)C[C@](O)(Cc1ccc(O)cc1)C(=O)O` [Non-solvate crystal, (R)-2-hydroxy-2-[(4-hydroxyphenyl)methyl]butanedioic acid], in data set [1], the Uniformity coefficient came to 3.36. The Methanol content in data set [3] and in data set [3] (listed as non-solvate crystal of eucomic acid) was 0.14 wt % throughout. Moreover, the “Water content (hydrated water)” value in data set [5] is on record as “did not contain hydrated water”. The Angle of repose in data set [4] was determined as 39.0 degree.
